Laboratory results as given in patent publication US11066414B2, “Cot modulators and methods of use thereof” (Gilead Sciences, Inc., priority 2015, dated 2021).
Read-outs that look alike come from different tables or passages of the source.

How the values were obtained:
TNFα = experiment: Cot Monocyte TNFα Cell Based Assay
Human Cot = Human Cot (Homo sapiens (Human), UniProt P41279); experiment: High Throughput Cot Biochemical Assay
[1] = Homo sapiens, Monocyte, read-out: EC50 TNF, LPS-stimulated human monocytes, TNFα
[2] = IC50 HTRF, Cot HTRF (TR-FRET) biochemical assay
[3] = read-out: EC50 TNF, LPS-stimulated human monocytes, TNFα
[4] = read-out: IC50 HTRF, Cot HTRF (TR-FRET) biochemical assay
[5] = Homo sapiens, Monocyte, read-out: EC50 TNF, LPS-stimulated human monocytes, TNFα TR-FRET
[6] = IC50 HTRF, Cot HTRF (TR-FRET KinEASE) biochemical assay, 400 μM ATP

Chain of Human Cot (P41279 30-397): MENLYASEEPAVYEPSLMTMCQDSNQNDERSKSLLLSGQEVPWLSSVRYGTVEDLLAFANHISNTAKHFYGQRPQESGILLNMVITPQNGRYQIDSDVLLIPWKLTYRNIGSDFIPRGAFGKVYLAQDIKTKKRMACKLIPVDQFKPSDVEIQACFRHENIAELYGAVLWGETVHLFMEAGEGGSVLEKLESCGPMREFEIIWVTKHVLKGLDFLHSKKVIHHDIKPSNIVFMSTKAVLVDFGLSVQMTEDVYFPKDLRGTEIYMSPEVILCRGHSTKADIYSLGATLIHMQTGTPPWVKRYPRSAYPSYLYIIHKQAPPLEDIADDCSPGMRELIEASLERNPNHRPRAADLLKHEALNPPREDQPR

Structure (SMILES)	EC50 (TNFα; [1]) [nM]	IC50 (Human Cot; [2]) [nM]	also measured
[2H]C(Nc1cc(Cl)c2ncc(C#N)c(NC(CCC#N)c3ccccc3)c2c1)(c1ccc(F)nc1)c1cn(C2CC2)nn1 (stereo not shown) [Example 93, 8-chloro-4-((3-cyano-1-phenylpropyl)amino)-6-(((1-cyclopropyl-1H-1,2,3-triazol-4-yl)(6-fluoropyridin-3-yl)methyl-d)amino)quinoline-3-carbonitrile]	74	7	
Cn1ccc2c([C@H](Nc3cc(Cl)c4ncc(C#N)c(NCC(C)(C)C)c4c3)c3cn(C4(C)COC4)nn3)cccc2c1=O [Example 760, (S)-8-chloro-6-(((2-methyl-1-oxo-1,2-dihydroisoquinolin-5-yl)(1-(3-methyloxetan-3-yl)-1H-1,2,3-triazol-4-yl)methyl)amino)-4-(neopentylamino)quinoline-3-carbonitrile]	58	2	
N#Cc1cnc2c(Cl)cc(N[C@@H](c3cccnc3)c3cn(C4COC4)nn3)cc2c1N[C@H](CCO)c1ccccc1 [Example 183, 8-chloro-4-(((R)-3-hydroxy-1-phenylpropyl)amino)-6-(((S)-(1-(oxetan-3-yl)-1H-1,2,3-triazol-4-yl)(pyridin-3-l)methyl)amino)-quinoline-3-carbonitrile]			EC50 (TNFα; [3]): > 10000 nM; IC50 (Human Cot; [4]): 357 nM
Cc1nc(F)ccc1[C@H](Nc1cc(C#N)c2ncc(C#N)c(NCC(C)(C)C)c2c1)c1nnn(C2CC2)c1Cl [Example 680, (S)-6-(((5-chloro-1-cyclopropyl-1H-1,2,3-triazol-4-yl)(6-fluoro-2-methylpyridin-3-yl)methyl)amino)-4-(neopentylamino)quinoline-3,8-dicarbonitrile]	98	3	
CC(C)(C)N1CCC(n2cc([C@@H](Nc3cc(Cl)c4ncc(C#N)c(Nc5ccc(F)c(Cl)c5)c4c3)c3cnco3)nn2)CC1 [Example 299, (R)-6-(((1-(1-(tert-butyl)piperidin-4-yl)-1H-1,2,3-triazol-4-yl)(oxazol-5-yl)methyl)amino)-8-chloro-4-((3-chloro-4-fluorophenyl)amino)quinoline-3-carbonitrile]	739	18	
CC(C)(C)CNc1c(C#N)cnc2c(Br)cc(N[C@H](c3cn(C4(C(N)=O)CC4)nn3)c3cccc4ncsc34)cc12 [Example 408, (S)-1-(4-(benzo[d]thiazol-7-yl((8-bromo-3-cyano-4-(neopentylamino)-quinolin-6-yl)amino)methyl)-1H-1,2,3-triazol-1-yl)cyclopropane-1-carboxamide]	88	1	
[2H][C@](Nc1cc(Cl)c2ncc(C#N)c(Nc3cccc(Cl)c3OC)c2c1)(c1ccc(F)nc1)c1cn(C2CC2)nn1 [Example 94, (S)-8-chloro-4-((3-chloro-2-methoxyphenyl)amino)-6-(((1-cyclopropyl-1H-1,2,3-triazol-4-yl)(6-fluoropyridin-3-yl)methyl-d)amino)quinoline-3-carbonitrile]	130	2	
Cc1cncc([C@H](Nc2cc(Cl)c3ncc(C#N)c(Nc4ccc(F)c(Cl)c4)c3c2)c2cn(C(C)C)nn2)c1 [Example 228, (S)-8-chloro-4-((3-chloro-4-fluorophenyl)amino)-6-(((1-isopropyl-1H-1,2,3-triazol-4-yl)(5-methylpyridin-3-yl)methyl)amino)quinoline-3-carbonitrile]	2310	18	
CCN1CCc2c([C@H](Nc3cc(Cl)c4ncc(C#N)c(Nc5ccc(F)c(Cl)c5)c4c3)c3cn(C(C)C)nn3)csc2C1 [Example 344, (S)-8-chloro-4-((3-chloro-4-fluorophenyl)amino)-6-(((6-ethyl-4,5,6,7-tetrahydrothieno[2,3-c]pyridin-3-yl)(1-isopropyl-1H-1,2,3-triazol-4-yl)methyl)amino)quinoline-3-carbonitrile]	151	3	
Cn1cc2c([C@H](Nc3cc(Cl)c4ncc(C#N)c(NCC(C)(C)C)c4c3)c3cn(C4CC4)nn3)cccc2n1 [Example 426, (S)-8-chloro-6-(((1-cyclopropyl-1H-1,2,3-triazol-4-yl)(2-methyl-2H-indazol-4-yl)methyl)amino)-4-(neopentylamino)-quinoline-3-carbonitrile]	95	2	
N#Cc1cnc2c(Cl)cc(N[C@H](c3cn(C4COC4)nn3)c3csc(N4CCOCC4)n3)cc2c1Nc1ccc(F)c(Cl)c1 [Example 302, (S)-8-chloro-4-((3-chloro-4-fluoro-phenyl)amino)-6-(((2-morpholinothiazol-4-yl)(1-(oxetan-3-yl)-1H-1,2,3-triazol-4-yl)methyl)amino)quinoline-3-carbonitrile]	472	10	
[2H][C@](Nc1cc(Cl)c2ncc(C#N)c(Nc3cnc(F)c(F)c3)c2c1)(c1cncc(C#N)c1)c1cn(C2CC2)nn1 [Example 143, (S)-8-chloro-6-(((5-cyanopyridin-3-yl)(1-cyclopropyl-1H-1,2,3-triazol-4-yl)methyl-d)amino)-4-((5,6-difluoropyridin-3-yl)amino)quinoline-3-carbonitrile]	898	16	
[2H][C@](Nc1cc(Cl)c2ncc(C#N)c(N[C@H](CC)c3ccccc3)c2c1)(c1ccc(F)nc1)c1c[nH]nn1 [Example 134, 8-chloro-6-(((S)-(6-fluoropyridin-3-yl)(1H-1,2,3-triazol-4-yl)methyl-d)amino)-4-(((R)-1-phenylpropyl)amino)quinoline-3-carbonitrile]	197	6	
CC(C)(C)CNc1c(C#N)cnc2c(C#N)cc(N[C@H](c3cn(CC(F)(F)F)nn3)c3cccc4ncsc34)cc12 [Example 460, (S)-6-((benzo[d]thiazol-7-yl(1-(2,2,2-trifluoroethyl)-1H-1,2,3-triazol-4-yl)methyl)amino)-4-(neopentylamino)-quinoline-3,8-dicarbonitrile]	156	5	
CCc1ncccc1[C@H](Nc1cc(C#N)c2ncc(C#N)c(NCC(C)(C)C)c2c1)c1cn(C2(C(F)(F)F)CC2)nn1 [Example 602, (S)-6-(((2-ethylpyridin-3-yl)(1-(1-(trifluoro-methyl)cyclopropyl)-1H-1,2,3-triazol-4-yl)methyl)amino)-4-(neopentylamino)-quinoline-3,8-dicarbonitrile]	69	3	
Cc1nc(F)ccc1[C@H](Nc1cc(Cl)c2ncc(C#N)c(NC3CCOC3(C)C)c2c1)c1cn(C2(C(F)F)CC2)nn1 (stereo partly drawn) [Example 511, 8-chloro-6-(((S)-(1-(1-(difluoromethyl)-cyclopropyl)-1H-1,2,3-triazol-4-yl)(6-fluoro-2-methylpyridin-3-yl)methyl)amino)-4-((2,2-dimethyltetrahydrofuran-3-yl)amino)-quinoline-3-carbonitrile]	133	6	
N#Cc1cnc2c(Cl)cc(N[C@@H](c3cocn3)c3c[nH]nn3)cc2c1N[C@H](CO)c1ccccc1 [Example 215, 8-chloro-4-(((S)-2-hydroxy-1-phenylethyl)amino)-6-(((S)-o)(azol-4-yl(1H-1,2,3-triazol-4-yl)methyl)amino)quinoline-3-carbonitrile]			EC50 (TNFα; [3]): > 10000 nM; IC50 (Human Cot; [4]): 258 nM
COc1c([C@@H](Nc2cc(Cl)c3ncc(C#N)c(NCC(C)(C)C)c3c2)c2ccc(F)nc2C)nnn1C1CC1 [Example 967, (S)-8-chloro-6-(((1-cyclopropyl-5-methoxy-1H-1,2,3-triazol-4-yl)(6-fluoro-2-methylpyridin-3-yl)methyl)amino)-4-(neopentylamino)quinoline-3-carbonitrile]			EC50 (TNFα; [5]): 94 nM; IC50 (Human Cot; [6]): 2 nM
[2H]C(Nc1cc(Cl)c2ncc(C#N)c(N[C@H](CC)c3ccccc3)c2c1)(c1cn(C2CC2)nn1)c1scnc1C (stereo partly drawn) [Example 101, 8-chloro-6-(((1-cyclopropyl-1H-1,2,3-triazol-4-yl)(4-methylthiazol-5-yl)methyl-d)amino)-4-(((R)-1-phenylpropyl)amino)quinoline-3-carbonitrile]	348	5	
Cn1cccc([C@H](Nc2cc(Cl)c3ncc(C#N)c(NCC(C)(C)C)c3c2)c2cn(C3(C(F)(F)F)CC3)nn2)c1=O [Example 936, (S)-8-chloro-6-(((1-methyl-2-oxo-1,2-dihydropyridin-3-yl)(1-(1-(trifluoromethyl)cyclopropyl)-1H-1,2,3-triazol-4-yl)methyl)amino)-4-(neopentylamino)quinoline-3-carbonitrile]			EC50 (TNFα; [5]): 287 nM; IC50 (Human Cot; [6]): 18 nM
Cc1ccc([C@H](Nc2cc(C#N)c3ncc(C#N)c(NCC(C)(C)C)c3c2)c2cn(C3(C(F)(F)F)CC3)nn2)c(C)n1 [Example 689, (S)-6-(((2,6-dimethylpyridin-3-yl)(1-(1′-(trifluoromethyl)cyclopropyl)-1H-1,2,3-triazol-4-yl)methyl)amino)-4-(neopentylamino)quinoline-3,8-dicarbonitrile]			EC50 (TNFα; [3]): 81 nM; IC50 (Human Cot; [4]): 9 nM
N#Cc1cnc2c(Cl)cc(N[C@@H](c3cccnc3)c3cn(C4COC4)nn3)cc2c1Nc1cccc(Cl)c1 [Example 196, (S)-8-chloro-4-((3-chlorophenyl)amino)-6-(((1-(oxetan-3-yl)-1H-1,2,3-triazol-4-yl)(pyridin-3-yl)methyl)amino)quinoline-3-carbonitrile]	668	6	
Cc1nc(F)ccc1[C@H](Nc1cc(C#N)c2ncc(C#N)c(NCC(C)(C)C(F)(F)F)c2c1)c1nnn(C23CC(C2)C3)c1F [Example 861, (S)-6-(((1-(bicyclo[1.1.1]pentan-1-yl)-5-fluoro-1H-1,2,3-triazol-4-yl)(6-fluoro-2-methylpyridin-3-yl)methyl)amino)-4-((3,3,3-trifluoro-2,2-dimethylpropyl)amino)quinoline-3,8-dicarbonitrile]			EC50 (TNFα; [5]): 40 nM; IC50 (Human Cot; [6]): 7 nM
